One experiment relates to wheat, winter. Nature of the experiment: Test C preemergence. It counts as in vivo, Triticum aestivum. The source says: (§1) Seeds of plant species selected from blackgrass (Alopecurus myosuroides), Italian ryegrass (Lolium multiflorum), wheat, winter (winter wheat, Triticum aestivum), galium (catchweed bedstraw, Galium aparine), corn (Zea mays), large (Lg) crabgrass (Digitaria sanguinalis), giant foxtail (Setaria faberii), johnsongrass (Sorghum halepense), lambsquarters (Chenopodium album), morningglory (Ipomoea coccinea), yellow nutsedge (Cyperus esculentus), pigweed (Amaranthus retroflexus), ragweed (common ragweed, Ambrosia elatior), soybean (Glycine max), barnyardgrass (Echinochloa crus-galli), oilseed rape (Brassica napus), waterhemp (common waterhemp, Amaranthus rudis), kochia (Kochia scoparia), wild oat (Avena fatua), surinam grass (Brachiaria decumbens), foxtail, green (green foxtail, Setaria viridis), goosegrass (Eleusine indica), bromegrass, downy (downy bromegrass, Bromus tectorum), nightshade (eastern black nightshade, Solanum ptycanthum), cocklebur (common cocklebur, Xanthium strumarium), cupgrass, woolly (woolly cupgrass, Eriochloa villosa), bermudagrass (Cynodon dactylon), sunflower, (common oilseed sunflower, Helianthus annuus), Russian thistle (Salsola kali), and velvetleaf (Abutilon theophrasti) were planted into a blend of loam soil and sand and treated preemergence with test chemicals formulated in a non-phytotoxic solvent mixture which included a surfactant.
(§2) At the same time, plants selected from these crop and weed species and also barley, winter (winter barley, Hordeum vulgare), windgrass (Apera spica-venti), chickweed (common chickweed, Stellaria media), deadnettle (henbit deadnettle, Lamium amplexicaule), and canarygrass (littleseed canarygrass, Phalaris minor) were planted in pots containing Redi-Earth® planting medium (Scotts Company, 14111 Scottslawn Road, Marysville, Ohio 43041) comprising spaghnum peat moss, vermiculite, wetting agent and starter nutrients and treated with postemergence applications of test chemicals formulated in the same manner. Plants ranged in height from 2 to 18 cm (1- to 4-leaf stage) for postemergence treatments. Treated plants and controls were maintained in a greenhouse for 13 to 15 days, after which time all species were compared to controls and visually evaluated. Plant response ratings, summarized in Table C, are based on a scale of 0 to 100 where 0 is no effect and 100 is complete control. A dash (-) response means no test result.

Another experiment deals with rice. The experiment can be described thus: Test B flooded paddy test. In kind it is in vivo, Oryza sativa. As to conditions: Flood, 250 g ai/ha, 0 to 100 scale where 0 is no effect and 100 is complete control. In a few lines:
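Evaluation is visual, against untreated controls, 13 to 15 days after treatment. Before treatment, plants reached the 2-leaf stage; pots were then flooded 3 cm deep, compound was added to the water, and that level was maintained. Ratings run 0 to 100, with 100 meaning complete control.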

For experiment [1], the system named is barnyardgrass. The experiment can be described thus: Test C preemergence. In kind it is in vivo, Echinochloa crus-galli.
From the text: as §1, §2

Experiment [2] has as its system barnyardgrass. Nature of the experiment: Test A preemergence. It counts as in vivo, Echinochloa crus-galli. The procedure, abridged: (§3)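 Visual 0–100 rating (100 = complete control) taken about 10 d post-treatment relative to untreated checks. Preemergence: directed soil spray on sown loam/sand pots. Postemergence: seedlings 2–10 cm, 1–2 leaf. Non-phytotoxic solvent formulation with surfactant.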

The subject of another experiment is soybean. The experiment can be described thus: Test C preemergence. It counts as in vivo, Glycine max.
From the text: as §1, §2

Another experiment relates to large (Lg) crabgrass. Nature of the experiment: Test C preemergence. In kind it is in vivo, Digitaria sanguinalis.
From the text: as §1, §2

The next experiment deals with blackgrass. Nature of the experiment: Test C preemergence. In kind it is in vivo, Alopecurus myosuroides.
From the text: as §1, §2

In a further experiment the test system is wheat. Nature of the experiment: Test A postemergence. It counts as in vivo, Triticum aestivum. In a few lines: as §3
Setting [3] is: 16 g ai/ha, preemergence, scale 0 to 100 (0 no effect, 100 complete control).
The mark [4] stands for this setting: 62 g ai/ha, preemergence, scale 0 (no effect) to 100 (complete control).
The mark [5] stands for this setting: 125 g ai/ha, preemergence, scale 0 (no effect) to 100 (complete control).
The mark [6] stands for this setting: Preemergence, 31 g ai/ha, scale 0 to 100, 0 no effect, 100 complete control.
[7] abbreviates: 125 g ai/ha, 0 to 100 scale where 0 is no effect and 100 is complete control.
Where [8] appears, read: 500 g ai/ha, 0 to 100 scale where 0 is no effect and 100 is complete control.
[9] abbreviates: 31 g ai/ha, 0 to 100 scale where 0 is no effect and 100 is complete control, visual, approximately 10 days.
[10] abbreviates: 31 g ai/ha, 0 to 100 scale, 0 no effect, 100 complete control.
The mark [11] stands for this setting: Preemergence, 62 g ai/ha, scale 0 to 100, 0 no effect, 100 complete control.

`COc1cnn(-c2c(C#N)cccc2Oc2ncc(Cl)cn2)c1` [Compound 137]: the “Wheat plant response rating” value in the experiment with wheat, winter (setting [3]) came to 0; in the experiment on wheat, winter (setting [4]), 0; with wheat, winter (setting [5]) it was 0; in the experiment on wheat (setting [7]) it was 30. Further, in the experiment on rice, the “Plant response rating, Rice” value is reported as 0. Also, the “Barnyardgrass plant response rating” value was found to be 0 in the experiment on barnyardgrass [1] (setting [3]), 10 with barnyardgrass [1] (setting [4]), 40 in the experiment on barnyardgrass [1] (setting [5]) and 100 in the experiment with barnyardgrass [2] (setting [8]). The results for the “Plant response rating, Barnyardgrass” value with barnyardgrass [1] (setting [6]) and in the experiment with barnyardgrass [2] (setting [7]) were 5 and 20, respectively. The “Soybean plant response rating” value in the experiment on soybean (setting [3]) is 10; with soybean (setting [4]), 80; in the experiment with soybean (setting [5]) it was 85. In addition, the “Crabgrass, Large plant response rating” value in the experiment with large (Lg) crabgrass (setting [3]) was 10; with large (Lg) crabgrass (setting [4]), 98; in the experiment with large (Lg) crabgrass (setting [5]) it was 100. The “Plant response rating, Crabgrass, Large” value in the experiment on large (Lg) crabgrass (setting [6]) worked out at 70. Also, the “Blackgrass plant response rating” value with blackgrass (setting [3]) is 0; in the experiment on blackgrass (setting [4]), 5; with blackgrass (setting [5]) it was 10. In the experiment on blackgrass (setting [6]), the “Plant response rating, Blackgrass” value was determined as 0. Further, the “Plant response rating, Wheat” value in the experiment on wheat (setting [8]) was 70.

Turning to `N#Cc1cnn(-c2c(CF)cccc2Oc2ncc(F)cn2)c1` [Compound 151], the “Wheat plant response rating” value in the experiment on wheat, winter (setting [3]) is 0; in the experiment with wheat, winter (setting [4]), 0; in the experiment with wheat, winter (setting [5]) it was 40; in the experiment with wheat (setting [7]) it was 30. In the experiment on rice, the “Plant response rating, Rice” value is reported as 20. The “Barnyardgrass plant response rating” value with barnyardgrass [1] (setting [3]) is 5; in the experiment with barnyardgrass [1] (setting [4]), 70; in the experiment with barnyardgrass [1] (setting [5]), 100. For the same compound, the results for the “Plant response rating, Barnyardgrass” value in the experiment with barnyardgrass [1] (setting [6]), with barnyardgrass [2] (setting [9]) and in the experiment on barnyardgrass [2] (setting [7]) were 5, 20 and 60, respectively. The “Soybean plant response rating” value with soybean (setting [3]) is 35; in the experiment with soybean (setting [4]), 85; in the experiment with soybean (setting [5]), 95. The “Crabgrass, Large plant response rating” value turned out to be 5 in the experiment with large (Lg) crabgrass (setting [3]), 98 in the experiment on large (Lg) crabgrass (setting [4]) and 100 in the experiment on large (Lg) crabgrass (setting [5]). Moreover, in the experiment with large (Lg) crabgrass (setting [6]), the “Plant response rating, Crabgrass, Large” value is given as 85. Moreover, the results for the “Blackgrass plant response rating” value in the experiment with blackgrass (setting [3]), in the experiment on blackgrass (setting [4]) and with blackgrass (setting [5]) were 0, 10 and 90, respectively. Further, the “Plant response rating, Blackgrass” value with blackgrass (setting [6]) worked out at 0. Further, the “Plant response rating, Wheat” value in the experiment with wheat (setting [10]) stood at 20.

As to `FCc1cccc(Oc2ncc(Cl)cn2)c1-n1cc(Cl)cn1` [Compound 250], the “Wheat plant response rating” value amounted to 0 in the experiment with wheat, winter (setting [3]) and 0 with wheat, winter (setting [5]). Moreover, the “Plant response rating, Wheat” value is recorded as 0 in the experiment with wheat, winter (setting [11]); 0 in the experiment on wheat (setting [10]); 0 with wheat (125 g ai/ha, 0 to 100 scale, 0 no effect, 100 complete control). In addition, the “Plant response rating, Rice” value in the experiment on rice is given as 0. Moreover, the “Barnyardgrass plant response rating” value with barnyardgrass [1] (setting [3]) was determined as 5; with barnyardgrass [1] (setting [5]) it was 100. Also, the entries for the “Plant response rating, Barnyardgrass” value in the experiment on barnyardgrass [1] (setting [11]) and in the experiment with barnyardgrass [2] (setting [9]) were 50 and 10, respectively. Besides, the “Barnyardgrass plant response rating (0 to 100 scale, 0 is no effect, 100 is complete control)” value in the experiment with barnyardgrass [2] (125 g ai/ha) was 90. In addition, the “Soybean plant response rating” value in the experiment with soybean (setting [5]) turned out to be 90. The “Plant response rating, Soybean” value with soybean (setting [11]) came to 65. Besides, the results for the “Crabgrass, Large plant response rating” value with large (Lg) crabgrass (setting [3]) and with large (Lg) crabgrass (setting [5]) were 75 and 100, respectively. In addition, the “Plant response rating, Crabgrass, Large” value in the experiment on large (Lg) crabgrass (setting [11]) is given as 98. For the same compound, the figures for the “Blackgrass plant response rating” value in the experiment with blackgrass (setting [3]) and in the experiment on blackgrass (setting [5]) were 0 and 90, respectively. Also, the “Plant response rating, Blackgrass” value in the experiment on blackgrass (setting [11]) came to 70.

As for `N#Cc1cccc(Oc2ncc(Cl)cn2)c1-n1cnc(C(F)(F)F)c1` [Compound 252, 3-[(5-chloro-2-pyrimidinyl)oxy]-2-[4-(trifluoromethyl)-1H-imidazol-1-yl]benzonitrile], the plant injury at 16 g/ha in the experiment with wheat, winter (Triticum aestivum, pre-emergence, 16 g ai/ha, preemergence, scale 0 to 100 (0 no effect, 100 complete control), read-out: Wheat plant response rating) turned out to be 0%; in the experiment with soybean (Glycine max, pre-emergence, 16 g ai/ha, preemergence, scale 0 to 100 (0 no effect, 100 complete control), read-out: Soybean plant response rating) it was 65%. Besides, the plant injury at 125 g/ha in the experiment on wheat, winter (Triticum aestivum, pre-emergence, 125 g ai/ha, preemergence, scale 0 (no effect) to 100 (complete control), read-out: Wheat plant response rating) turned out to be 45%; in the experiment with soybean (Glycine max, pre-emergence, 125 g ai/ha, preemergence, scale 0 (no effect) to 100 (complete control), read-out: Soybean plant response rating) it was 98%; in the experiment with wheat (Triticum aestivum, post-emergence, 240 h, 125 g ai/ha, 0 to 100 scale, 0 no effect, 100 complete control, read-out: Plant response rating, Wheat), 30%. Besides, the plant injury at 62 g/ha with wheat, winter (Triticum aestivum, pre-emergence, Preemergence, 62 g ai/ha, scale 0 to 100, 0 no effect, 100 complete control, read-out: Plant response rating, Wheat) was 0%; in the experiment with soybean (Glycine max, pre-emergence, Preemergence, 62 g ai/ha, scale 0 to 100, 0 no effect, 100 complete control, read-out: Plant response rating, Soybean), 95%. Further, the plant injury at 250 g/ha with rice (Oryza sativa, read-out: Plant response rating, Rice) was 0%. Moreover, the pest or weed control at 16 g/ha was 10% with barnyardgrass [1] (Echinochloa crus-galli, pre-emergence, 16 g ai/ha, preemergence, scale 0 to 100 (0 no effect, 100 complete control), read-out: Barnyardgrass plant response rating); 60% in the experiment on large (Lg) crabgrass (Digitaria sanguinalis, pre-emergence, 16 g ai/ha, preemergence, scale 0 to 100 (0 no effect, 100 complete control), read-out: Crabgrass, Large plant response rating); 10% with blackgrass (Alopecurus myosuroides, pre-emergence, 16 g ai/ha, preemergence, scale 0 to 100 (0 no effect, 100 complete control), read-out: Blackgrass plant response rating). Besides, the pest or weed control at 125 g/ha in the experiment with barnyardgrass [1] (Echinochloa crus-galli, pre-emergence, 125 g ai/ha, preemergence, scale 0 (no effect) to 100 (complete control), read-out: Barnyardgrass plant response rating) turned out to be 100%; in the experiment on large (Lg) crabgrass (Digitaria sanguinalis, pre-emergence, 125 g ai/ha, preemergence, scale 0 (no effect) to 100 (complete control), read-out: Crabgrass, Large plant response rating) it was 100%; with blackgrass (Alopecurus myosuroides, pre-emergence, 125 g ai/ha, preemergence, scale 0 (no effect) to 100 (complete control), read-out: Blackgrass plant response rating), 95%. For the same compound, the pest or weed control at 62 g/ha in the experiment on barnyardgrass [1] (Echinochloa crus-galli, pre-emergence, Preemergence, 62 g ai/ha, scale 0 to 100, 0 no effect, 100 complete control, read-out: Plant response rating, Barnyardgrass) is 100%; in the experiment on large (Lg) crabgrass (Digitaria sanguinalis, pre-emergence, Preemergence, 62 g ai/ha, scale 0 to 100, 0 no effect, 100 complete control, read-out: Plant response rating, Crabgrass, Large) it was 100%; with blackgrass (Alopecurus myosuroides, pre-emergence, Preemergence, 62 g ai/ha, scale 0 to 100, 0 no effect, 100 complete control, read-out: Plant response rating, Blackgrass) it was 90%. Further, the “Barnyardgrass plant response rating (0 to 100 scale, 0 is no effect, 100 is complete control)” value with barnyardgrass [2] (125 g ai/ha) amounted to 100. In the experiment with barnyardgrass [2] (Echinochloa crus-galli, pre-emergence, 240 h, 31 g ai/ha, 0 to 100 scale where 0 is no effect and 100 is complete control, visual, approximately 10 days, read-out: Plant response rating, Barnyardgrass), the pest or weed control at 31 g/ha came out at 70%. For the same compound, in the experiment with barnyardgrass [2] (Echinochloa crus-galli, pre-emergence, 240 h, 500 g ai/ha, 0 to 100 scale where 0 is no effect and 100 is complete control, read-out: Barnyardgrass plant response rating), the pest or weed control at 500 g/ha stood at 100%. Moreover, in the experiment with wheat (Triticum aestivum, post-emergence, 240 h, 31 g ai/ha, 0 to 100 scale, 0 no effect, 100 complete control, read-out: Plant response rating, Wheat), the plant injury at 31 g/ha is 20%. In addition, in the experiment on wheat (Triticum aestivum, post-emergence, 240 h, 500 g ai/ha, 0 to 100 scale where 0 is no effect and 100 is complete control, read-out: Plant response rating, Wheat), the plant injury at 500 g/ha was determined as 90%.

The values are drawn from US9695155B2, “Herbicidal substituted pyrimidinyloxy benzene compounds” (E. I. DU PONT DE NEMOURS AND COMPANY, priority 2013, dated 2017).
